According to patent US11161823B2, “Anticancer 1,3-dioxane-4,6-dione derivatives and method of combinatorial synthesis thereof” (National Guard Health Affairs, priority 2019, dated 2021):
Where two headings read alike, the source gives them in different places.

What was measured:
Format in all cases: cell-based, human
[1] = system: MDA MB-231 cell line (Breast); experiment: MTT cell proliferation assay, MDA MB-231; details: Homo sapiens, read-out: IC50 μM MDA MB-231 (Breast)
Procedure: (§1) Cell Culture: The human breast cancer epithelial cell lines MDA-MB-231 (HTB-26™), MCF-7 (HTB-22™), colon cancer cell lines HCT 116 (CCL-247™) and […] (CCL-244™) were obtained from American Type Culture Collection (ATCC). Additionally, KAIMRC1 cell line was isolated and developed at KAIMRC from a breast cancer patient. All the cells were grown in advanced DMEM containing 10% fetal bovine serum (FBS), 50 units/mL penicillin, 50 ug/mL streptomycin (GIBCO), and 2 mM glutamine (GIBCO). The cells were cultured at 37° C. in a humidified 5% CO2 atmosphere for 24 hours before experimental procedure.
(§2) Cell Proliferation Assay (MTT): Cells were plated on flat-bottom 96-well plates at a density of 5×10^3 cells/well in 100 μL growth medium. Serial dilutions of the compounds, ranging from 100 nM-100 μM were tested on the cells in triplicates. Additional rows with only the compounds and only cells were added in order to account for the compounds and cells effect. Cells were incubated with compounds for 48 h at 37° C. with 5% CO2.
(§3) After 48 h treatment, the cell viability was determined using the MTT viability assay. Briefly, 5 μL of MTT reagent (5 mg/mL stock) per 95 μl cell culture medium was added to each well and incubated for 3 h at 37° C. with 5% CO2. After 3 h the supernatant was removed, and the MTT formazan crystals were dissolved in dimethyl sulfoxide (DMSO) by shaking the plate for 30 mins at RT. The absorbance was measured on Molecular Devices microplate absorbance reader at 560 nm. The percentage of viable cells was calculated as the ratio of the absorbance of the treated group divided by the absorbance of the control group multiplied by 100. The absorbance from the untreated control cells was set as 100% viable. IC50 values were calculated from dose-response curves generated using a polynomial dose-response approximation using Prism 8 software. The IC50 values (µM) obtained for the compounds of present invention on MDA-MD 231 (breast), MCF-7 (breast), KAIMRC1 (breast), HCT116 (colon) and HCT8 (colon) are summarized in Table 5 and 6.

HCT116 (Colon) = experiment: MTT cell proliferation assay, HCT116; details: Homo sapiens, read-out: IC50 μM HCT116 (Colon)
Procedure: as §1, §2, §3

MCF-7 (Breast) = experiment: MTT cell proliferation assay, MCF-7; details: Homo sapiens, read-out: IC50 μM MCF-7 (Breast)
Procedure: as §1, §2, §3

KAIMRC1 (Breast) = experiment: MTT cell proliferation assay, KAIMRC1; details: Homo sapiens, read-out: IC50 μM KAIMRC1 (Breast)
Source text: The immortalized cell lines included in the testing panel of this disclosure are MCF7 (a breast cancer cell line), MCF10 (immortalized human breast epithelial cells), MDA-MB231 (an epithelial, human breast cancer cell line that was established from a pleural effusion of a patient with a metastatic mammary adenocarcinoma), KAIMRC1 (a naturally immortalized human breast carcinoma cell line), KAIMRC2 (a naturally immortalized breast cancer cell line). The primary cells available for lead toxicity assays are, without limitation: hepatocytes (supplied by Xenotech, Bioscience Lonza, Accegen, Biocompare, Gibco, Zen-Bio, Takarabio, AxolBio, Creative Bioarray), cardiomyocytes (supplied by Cellartis, Axolbio, Cedarlanelabs, EMD Millipore, Takara Bio, Neuromics, AcceGene), primary neurons (AcceGen, Cellapplications, Neuromics, Biocompare, AxolBio, BrainXcell), endothelial lining (Thermofisher, Accegen, Biocompare, Promocell, ATCC). Multicellular 3D organoids raised by differentiating iPSC (induced pluripotent stem cells) are provided by Sigma Aldrich (the iPSC cell lines, organoids), Tocris Bioscience, Thermofisher, Stemcell Technologies, Takara Bio, Emulatebio (Human organ chips), Prodolabs.
as §1, §2, §3

HCT 8 (Colon) = experiment: MTT cell proliferation assay, HCT 8; details: Homo sapiens, read-out: IC50 μM HCT 8 (Colon)
Procedure: as §1, §2, §3

[2] = MDA-MB-231, MTT, 48 h treatment, medium with 10% FBS
[3] = HCT-116, MTT, 48 h treatment, medium with 10% FBS
[4] = MCF7, MTT, 48 h treatment, medium with 10% FBS
[5] = MTT, 48 h treatment, medium with 10% FBS
[6] = HCT-8, MTT, 48 h treatment, medium with 10% FBS

Compound | IC50 [1, 2] [µM] | IC50 (HCT116 (Colon); [3]) [µM] | IC50 (MCF-7 (Breast); [4]) [µM] | IC50 (KAIMRC1 (Breast); [5]) [µM] | IC50 (HCT 8 (Colon); [6]) [µM] | other results
O=C1OC2(CCC2)OC(=O)C1=CC=Cc1ccnc2ccccc12 [Example 15, 7-(3-QUINOLIN-4-YL-ALLYLIDENE)-5,9-DIOXA-SPIRO[3.5]NONANE-6,8-DIONE] | 7.84 | – | – | – | – | –
CCC1(C)OC(=O)C(=CC=Cc2cccc3ccccc23)C(=O)O1 (centres unmarked) [Example 19, 2 ETHYL,2-METHYL-5-(3-NAPHTHALEN-1-YL-ALLYLIDENE)-[1,3]DIOXANE-4,6-DIONE] | 5.92 | 2.44 | 5.82 | 5.82 | 2.95 | –
O=C1OC2(CCC2)OC(=O)C1=CC=Cc1cncc2ccccc12 [Example 16, 7-(3-ISOQUINOLIN-4-YL-ALLYLIDENE)-5,9-DIOXA-SPIRO[3.5]NONANE-6,8-DIONE] | – | 8.04 | 5.44 | 8.09 | 6.01 | –
O=C1NC(=O)C(=C/C=C/c2ccnc3ccccc23)C(=O)N1 [Example 6, 5-(3-QUINOLIN-4-YL-ALLYLIDENE)-PYRIMIDINE-2,4,6-TRIONE] | – | – | – | – | – | IC50 ([1]; MDA-MB-231, 48 h): 21.2 µM; IC50 (MCF-7 (Breast); MCF7, 48 h): 31.9 µM; IC50 (KAIMRC1 (Breast); 48 h): 18 µM
CCCC1(C)OC(=O)C(=CC=Cc2ccnc3ccccc23)C(=O)O1 (centres unmarked) [Example 14, 2-METHYL-2-PROPYL-5-(3-QUINOLIN-4-YL-ALLYLIDENE)-[1,3]DIOXANE-4,6-DIONE] | 15.5 | 15.4 | 15.2 | 27.6 | 18.9 | –
CCC1(C)OC(=O)C(=CC=Cc2ccc(OC)c3ccccc23)C(=O)O1 (centres unmarked) [Example 21, 2-ETHYL-5-[3-(4-METHOXY-NAPHTHALEN-1-YL)-ALLYLIDENE]-2-METHYL-[1,3]DIOXANE-4,6-DIONE] | 17 | 50 | – | – | – | –
CC1(C)OC(=O)C(=CC=Cc2cccc3ccccc23)C(=O)O1 [Example 18, 2,2-DIMETHYL-5-(3-NAPHTHALEN-1-YL-ALLYLIDENE)-[1,3]DIOXANE-4,6-DIONE] | – | – | – | 6.54 | 5.78 | –
O=C1OC2(CCCCC2)OC(=O)C1=CC=Cc1ccnc2ccccc12 [Example 17, 3-(3-QUINOLIN-4-YL-ALLYLIDENE)-1,5-DIOXA-SPIRO[5.5]UNDECANE-2,4-DIONE] | 13 | 13.7 | 17.3 | 19.6 | 12.9 | –
CC1(C)OC(=O)C(=CC#Cc2cccc3ccccc23)C(=O)O1 [Example 28, 2,2-DIMETHYL-5-(3-NAPHTHALEN-1-YL-PROP-2-YNYLIDENE)-[1,3]DIOXANE-4,6-DIONE] | – | – | – | – | – | IC50 (KAIMRC1 (Breast); 48 h): 7.36 µM; IC50 (HCT 8 (Colon); HCT-8, 48 h): 8.82 µM
CC1(C)OC(=O)C(=CC=Cc2cccc3occc23)C(=O)O1 [Example 32, 5-(3-BENZOFURAN-4-YL-ALLYLIDENE)-2,2-DIMETHYL-[1,3]DIOXANE-4,6-DIONE] | 7.5 | 34.2 | – | – | – | –
CCC1(C)OC(=O)C(=C/C=C/c2c3ccccc3cc3ccccc23)C(=O)O1 (centres unmarked) [Example 2, 5-(3-ANTHRACEN-9-YL-ALLYLIDENE)-2-ETHYL-2-METHYL-[1,3]DIOXANE-4,6-DIONE] | 25.2 | – | – | – | – | –
O=C1NC(=O)C(=C/C=C/c2c3ccccc3cc3ccccc23)C(=O)N1 [Example 1, 5-(3-ANTHRACEN-9-YL-ALLYLIDENE)-PYRIMIDINE-2,4,6-TRIONE] | – | – | – | – | – | IC50 (HCT116 (Colon); HCT-116, 48 h): 27.1 µM; IC50 ([1]; MDA-MB-231, 48 h): 52 µM; IC50 (MCF-7 (Breast); MCF7, 48 h): 10.5 µM
